“Also recorded” adds a separate entry of the source.
Columns and labels:
[1] = test system: microtubules in carcinoma A549 cells; test: Immunofluorescent microscopy of microtubules; type: cell-based, human
Description: Since verubulin is known to stimulate microtubule disassociation, we performed an immunofluorescent microscopy study to determine the response of microtubule dynamics in carcinoma A549 cells to the treatment with representative compounds 2b,c,e. […] Aberrant cell morphology—contraction and rounding (Figure 2A,B) or contraction and elongation (Figure 2C)—was also observed.
A549 cells were seeded on coverslips (treated with poly-l-lysine at a concentration of 33 mg/L for an hour). Compounds were added up to the corresponding concentration after 24 h attachment and growth of the cells. Then, cells were incubated 24 h.
The cells were fixed with methanol (precooled in liquid nitrogen for 20 min), no additional permeabilization was performed. To prevent non-specific binding, cells were incubated with 4% BSA in PBS for one hour. Then, a solution of mouse monoclonal antibodies against alpha-tubulin cross-linked with Alexa 488 fluoroform (Thermo Fisher Scientific, Waltham, MA, USA, 32-2588) at a concentration of 5 μg/mL in 1% BSA solution in PBS was added to the cells, and the slides were incubated at +5 °C in a water chamber for 24 h. After the end of the incubation time, the cells were washed several times with PBS buffer solution and fixed on a glass slide with Moviol. Next day, cells were imaged with a ZEISS LSM 900 (ZEISS Microscopy, GmbH, Germany) and images processed with ImageJ.

[2] = test system: human breast cancer cell line MCF7′; test: MTT cytotoxicity assay, MCF7′; type: cell-based; conditions: MCF7, 64 h treatment, MTT, read-out: IC50, nM MCF7′
Text: (§1) The obtained series of verubulin analogues 2a–r (which also included three by-products isolated in the reactions according to Scheme 2) were initially evaluated for cytotoxicity against commonly used human breast cancer cell line MCF7′ (fast-growth subclone), human lung epithelial carcinoma cell line A549 and etiologically non-cancer immortalized lung fibroblast cell line VA13 (WI38 subline 2RA). Cytotoxicity against immortalized human embryonic kidney cell line HEK293T, characterized by a high growth rate, was also studied regarding cytotoxicity against non-cancerous fast-growth cells. A standard MTT assay was performed; verubulin (1) served as a positive reference. The data obtained are presented in Table 1 (for dose–response curves, see Supplementary Materials).
(§2) Human breast cancer cell line MCF7′ and human lung adenocarcinoma cell line A549 were kindly provided by Dr. S. Dmitriev (Lomonosov Moscow State University), immortalized human fibroblast cell line VA13 (WI38 subline 2RA) was kindly provided by Dr. M. Rubtsova (Lomonosov Moscow State University), human embryonic kidney HEK293T cell line was kindly provided by Dr. E. Knyazhanskaya (Lomonosov Moscow State University). MCF7′, VA13, A549 and HEK293T cell lines were maintained in DMEM/F-12 (Thermo Fisher Scientific, Waltham, MA, USA) culture medium containing 10% fetal bovine serum (Thermo Fisher Scientific, Waltham, MA, USA) and 50 μg/mL penicillin and 0.05 mg/mL streptomycin at 37 °C (Thermo Fisher Scientific, Waltham, MA, USA) in 5% CO2. Cells were maintained at 37 °C in a humidified MCO-18AC incubator (Sanyo, Tokyo, Japan) supplied with 5% CO2. Cell cultures were tested for the absence of mycoplasma and validated by STR.
(§3) The cytotoxicity of the substances was tested using the 3-(4,5-dimethylthiazol-2-yl)2,5-diphenyl tetrazolium bromide (MTT) assay with some modifications. A total of 2500 cells per well for the MCF7′, HEK293T, A549 cell lines or 4000 cells per well for the VA-13 cell line were plated out in 135 μL of DMEM-F12 media (Gibco, Thermo Fisher Scientific, Waltham, MA, USA) in a 96-well plate and incubated in the 5% CO2 incubator for the first 20 h without treatment. Then, 15.8 μL of media–DMSO solutions of tested substances (final DMSO concentrations in the media were 0.5% or less) was added to the cells (triplicate each) and cells were treated for 64 h with 0.023 mg/L–50 mg/L (eight dilutions) of compounds 2f,n,o,r; 1.14 μg/L–2.5 mg/L (eight dilutions) of compounds 2a,b,d,g,h,k,l,p,q; 57.2 ng/L–125 μg/L (eight dilutions) of compounds 2e,i,j; 22.9 ng/L–50 μg/L (eight dilutions) of compounds 1,2c,m. Doxorubicin was used as a control substance. Then, the MTT reagent (Paneco LLC, Moscow, Russia) was added to cells up to a final concentration of 0.5 g/L (10 × stock solution in PBS was used) and incubated for 2 h at 37 °C in the incubator, under an atmosphere of 5% CO2. Then, the MTT solution was discarded, and 140 μL of DMSO (PharmaMed LLC, Moscow, Russia) was added. The plates were swayed on a shaker (120 rpm) to dissolve the formazan. The absorbance was measured using a microplate reader (VICTOR X5 Light Plate Reader, PerkinElmer, Waltham, MA, USA) at a wavelength of 555 nm (in order to measure formazan concentration). The results were used to construct dose–response graphs and to estimate IC50 values (IC50 is the concentration resulting in half of the maximal cytotoxic effect) with GraphPad Prism V, GraphPadSoftware, Inc., San Diego, CA, USA.

[3] = test system: immortalized lung fibroblast cell line VA13 (WI38 subline 2RA); test: MTT cytotoxicity assay, VA13; type: cell-based; conditions: Homo sapiens, VA-13; 64 h treatment, MTT; read-out: IC50, nM VA13
Text: as §1, §2, §3

[4] = test system: human lung epithelial carcinoma cell line A549; test: MTT cytotoxicity assay, A549; type: cell-based; conditions: A549, 64 h treatment, MTT, read-out: IC50, nM A549
Text: as §1, §2, §3

[5] = test system: immortalized human embryonic kidney cell line HEK293T; test: MTT cytotoxicity assay, HEK293T; type: cell-based; conditions: HEK-293T, 64 h treatment, MTT, read-out: IC50, nM HEK293T
Text: as §1, §2, §3

[6] = test system: MCF7′, A549, VA13, HEK293T cell lines; test: MTT cytotoxicity, SAR statements over the cell line panel; type: cell-based, human; conditions: for cytotoxicity, in words: MTT, 64 h; for reduction of cytotoxicity on removal of para-methoxy substituent: 2a vs. 2c, 2g vs. 2i
Text: as §1, §3

melting point [°C] | SMILES | effect on microtubules (MTs) ([1]; 0.03 μM, A549, positive control) | IC50 [2] [nM] | IC50 [3] [nM] | IC50 [4] [nM] | IC50 [5] [nM] | cytotoxicity, in words [6] | selectivity towards tumor cells ([6]; pair A549/VA13) | reduction of cytotoxicity relative to 2c ([6]; ring B enlarged to seven-membered) | effect on microtubules (MTs) ([1]; 100 μM (very high concentration), 24 h, A549) | reduction of cytotoxicity on removal of para-methoxy substituent [6] | effect on microtubules (MTs) ([1]; 10 μM, 24 h, A549) | effect on microtubules ([1]; 5–10 μM, 24 h, A549) | activity relative to 2k ([6]; conformational restriction of 2k)
– | COc1ccc(/C=C\c2cc(OC)c(OC)c(OC)c2)cc1O [CA-4, combretastatin A-4, reference compound] | full depolymerization of MTs | – | – | – | – | – | – | – | – | – | – | – | –
– | COc1ccc2c(c1)CCCN2c1nc(OC(C)C)nc2c1CCCC2 [Compound 2q, 2-Isopropoxy-4-(6-methoxy-3,4-dihydroquinolin-1(2H)-yl)-5,6,7,8-tetrahydroquinazoline] | – | 310 ± 22 | 160 ± 20 | 360 ± 34 | 250 ± 11 | largely restored | – | – | – | – | – | – | –
184 to 185 | Cc1nc2c(c(N3CCCc4ccc([N+](=O)[O-])cc43)n1)CCCC2 [Compound 2f, 2-Methyl-4-(7-nitro-3,4-dihydroquinolin-1(2H)-yl)-5,6,7,8-tetrahydroquinazoline] | – | > 50000 | > 50000 | > 50000 | > 50000 | inactive | – | – | – | – | – | – | –
92 to 93 | COc1ccc(N(C)c2nc(C)nc3c2CCCCC3)cc1 [Compound 2k, N-(4-Methoxyphenyl)-N,2-dimethyl-6,7,8,9-tetrahydro-5H-cyclohepta[d]pyrimidin-4-amine] | – | 53 ± 7 | 22 ± 6 | 79 ± 10 | 39 ± 6 | – | no selectivity | more than 10 times | – | – | – | – | –
84 to 85 | Cc1nc2c(c(N(C)c3ccccc3)n1)CCCC2 [Compound 2a, N,2-Dimethyl-N-phenyl-5,6,7,8-tetrahydroquinazolin-4-amine] | – | 1840 ± 810 | 1400 ± 180 | 2200 ± 260 | 1750 ± 230 | – | – | – | intact MTs; also recorded: no effect on the microtubule cytoskeleton | 2–3 orders of magnitude | – | – | –
– | COc1ccc(N(C)c2nc3c(c(N(C)c4ccc(OC)cc4)n2)CCCC3)cc1 [Compound 2n, N,N′-bis(4-methoxyphenyl)-N,N′-dimethyl-5,6,7,8-tetrahydroquinazolin-2,4-diamine] | – | 2500 ± 140 | 2290 ± 160 | 3270 ± 290 | 1720 ± 68 | moderately cytotoxic | – | – | – | – | – | – | –
118 to 119 | Cc1nc2c(c(N3CCCc4ccccc43)n1)CCCC2 [Compound 2d, 4-(3,4-Dihydroquinolin-1(2H)-yl)-2-methyl-5,6,7,8-tetrahydroquinazoline] | – | 9100 ± 2200 | 3000 ± 700 | 12600 | 7300 ± 1200 | – | – | – | – | – | – | – | –
91 to 92 | Cc1ccc(N(C)c2nc(C)nc3c2CCCC3)cc1 [Compound 2b, N,2-Dimethyl-N-(4-methylphenyl)-5,6,7,8-tetrahydroquinazolin-4-amine] | – | 97 ± 7 | 62 ± 8 | 110 ± 8 | 89 ± 3 | – | – | – | – | – | depolymerization of MTs | pronounced or complete disruption of microtubules | –
128 to 129 | CN(c1ccccc1)c1nc(N)nc2c1CCCC2 [Compound 2g, N^4-Methyl-N^4-phenyl-5,6,7,8-tetrahydroquinazolinyl-2,4-diamine] | – | 28600 | 26900 | 36400 | 26300 | – | – | – | – | 2–3 orders of magnitude | – | – | –
– | COc1ccc2c(c1)CCCN2c1nc(O)nc2c1CCCC2 [Compound 2o, 2-Hydroxy-4-(6-methoxy-3,4-dihydroquinolin-1(2H)-yl)-5,6,7,8-tetrahydroquinazoline] | – | > 50000 | > 50000 | > 50000 | > 50000 | complete loss of cytotoxicity | – | – | – | – | – | – | –
135 to 136 | Cc1ccc(N(C)c2nc(N)nc3c2CCCC3)cc1 [Compound 2h, N^4-Methyl-N^4-(4-methylphenyl)-5,6,7,8-tetrahydroquinazolinyl-2,4-diamine] | – | 210 ± 15 | 150 ± 14 | 310 ± 23 | 170 ± 18 | – | – | – | – | – | – | – | –
122 to 123 | COc1ccc2c(c1)CCCN2c1nc(C)nc2c1CCCCC2 [Compound 2l, 4-(6-Methoxy-3,4-dihydroquinolin-1(2H)-yl)-2-methyl-6,7,8,9-tetrahydro-5H-cyclohepta[d]pyrimidine] | – | 360 ± 70 | 260 ± 80 | 790 ± 19 | 450 ± 100 | – | – | – | – | – | – | – | seven to twelve times less active
– | COc1ccc2c(c1)CCCN2c1nc2c(c(N3CCCc4cc(OC)ccc43)n1)CCCC2 [Compound 2p, 2,4-Bis(6-methoxy-3,4-dihydroquinolin-1(2H)-yl)-5,6,7,8-tetrahydroquinazoline] | – | 660 ± 150 | 290 ± 74 | 640 ± 76 | 510 ± 33 | moderately cytotoxic | – | – | – | – | – | – | –
– | COc1ccc2c(c1)CCCN2c1nc2c(c(OC(C)C)n1)CCCC2 [Compound 2r, 4-Isopropoxy-2-(6-methoxy-3,4-dihydroquinolin-1(2H)-yl)-5,6,7,8-tetrahydroquinazoline] | – | 24200 | 118000 | 23800 | 53500 | moderately cytotoxic | – | – | – | – | – | – | –

— publication PMC10610134, “Verubulin (Azixa) Analogues with Increased Saturation: Synthesis, SAR and Encapsulation in Biocompatible Nanocontainers Based on Ca^2+ or Mg^2+ Cross-Linked Alginate” (Pharmaceuticals, 2023)
